Measured values: patent US7718160B2, “Radiolabeled compounds and liposomes and their method of making and using same” (The Board of Regents of the University of Texas System, priority 2002, dated 2010)
“Also recorded” adds a separate entry of the source.

Columns and labels:
Format in all cases: in vivo
[1] = Normal rat biodistribution of ^99mTc-liposomes at 20 hours after intravenous injection
Method: For comparison, biodistributions of the ^99mTc-“SNS/S” complexes used for liposome labeling were also performed.

[2] = Gamma camera images of normal rats after intravenous injection (^99mTc); conditions: rat, baseline, 1 hour, 4 hours and 20 hours after intravenous injection
From the text: (H: Heart; S: Spleen; L: Liver; Bo: Bowel; B1: Bladder.)
(H: Heart; S: Spleen; L: Liver; Bo: Bowel.)
From the images, significant differences between ^99mTc-liposome labeled with ^99mTc-“BMEDA” and ^99mTc-“BMEDA” alone were observed. […] From the images, significant differences between ^99mTc-liposome labeled with ^99mTc-“BMEDA+BT” and ^99mTc-“BMEDA+BT” alone were observed.

[3] = Normal rat biodistribution of ^186Re-liposomes at 72 hours after intravenous injection
[4] = Gamma camera images of normal rats after intravenous injection (^186Re); conditions: rat, baseline, 1 hour, 4 hours, 24 hours and 72 hours after intravenous injection

In the case of `CCN(CC)CCN(CCS)CC[S][99Tc]1(=[O])[S]CCN(CCN(CC)CC)CC[S]1` [^99mTc-“BMEDA” alone], the “distribution behavior” value [1] is reported as “does not” and the “distribution seen in gamma camera images” value [2] is reported as “fast blood clearance, fast excretion into bowel and urine, and no spleen accumulation”.

For `CCN(CC)CCN(CCS)CC[S][186Re]1(=[O])[S]CCN(CCN(CC)CC)CC[S]1` [^186Re-“BMEDA” Alone], the “% ID/Gram (Average ± Sd), Blood” value ([3]; normal rat) was 0.022 ± 0.001 % ID/Gram, the “% ID/Gram (Average ± Sd), Bowel” value ([3]; normal rat) was 0.34 ± 0.19 % ID/Gram and the “% ID/Gram (Average ± Sd), Brain” value ([3]; normal rat) was 0.0035 ± 0.0007 % ID/Gram. For the same compound, the “% ID/Gram (Average ± Sd), Feces” value ([3]; normal rat) was 4.82 ± 1.53 % ID/Gram, the “% ID/Gram (Average ± Sd), Femur” value ([3]; normal rat) was 0.014 ± 0.000 % ID/Gram and the “% ID/Gram (Average ± Sd), Heart” value ([3]; normal rat) was 0.069 ± 0.007 % ID/Gram. For the same compound, the “% ID/Gram (Average ± Sd), Kidney” value ([3]; normal rat) was 4.49 ± 0.37 % ID/Gram, the “% ID/Gram (Average ± Sd), Liver” value ([3]; normal rat) was 0.54 ± 0.05 % ID/Gram and the “% ID/Gram (Average ± Sd), Lung” value ([3]; normal rat) was 0.23 ± 0.03 % ID/Gram. For the same compound, the “% ID/Gram (Average ± Sd), Muscle” value ([3]; normal rat) was 0.0048 ± 0.0005 % ID/Gram, the “% ID/Gram (Average ± Sd), Skin” value ([3]; normal rat) was 0.029 ± 0.012 % ID/Gram and the “% ID/Gram (Average ± Sd), Spleen” value ([3]; normal rat) was 0.38 ± 0.14 % ID/Gram. For the same compound, the “% ID/Gram (Average ± Sd), Testis” value ([3]; normal rat) was 0.015 ± 0.003 % ID/Gram, the “% ID/Gram (Average ± Sd), Urine” value ([3]; normal rat) was 0.79 ± 0.08 % ID/Gram and the “% ID/Organ (Average ± Sd), Blood” value ([3]; normal rat) was 0.49 ± 0.04 % ID/Organ. For the same compound, the “% ID/Organ (Average ± Sd), Bowel” value ([3]; normal rat) was 6.67 ± 3.31 % ID/Organ, the “% ID/Organ (Average ± Sd), Brain” value ([3]; normal rat) was 0.0052 ± 0.0007 % ID/Organ and the “% ID/Organ (Average ± Sd), Feces” value ([3]; normal rat) was 20.54 ± 4.35 % ID/Organ. The “% ID/Organ (Average ± Sd), Femur” value ([3]; normal rat) was 0.58 ± 0.06 % ID/Organ, the “% ID/Organ (Average ± Sd), Heart” value ([3]; normal rat) was 0.076 ± 0.005 % ID/Organ and the “% ID/Organ (Average ± Sd), Kidney” value ([3]; normal rat) was 10.42 ± 0.93 % ID/Organ. The “% ID/Organ (Average ± Sd), Liver” value ([3]; normal rat) was 5.97 ± 0.35 % ID/Organ, the “% ID/Organ (Average ± Sd), Lung” value ([3]; normal rat) was 0.37 ± 0.06 % ID/Organ and the “% ID/Organ (Average ± Sd), Muscle” value ([3]; normal rat) was 0.79 ± 0.07 % ID/Organ. The “% ID/Organ (Average ± Sd), Skin” value ([3]; normal rat) was 1.48 ± 0.51 % ID/Organ, the “% ID/Organ (Average ± Sd), Spleen” value ([3]; normal rat) was 0.21 ± 0.05 % ID/Organ and the “% ID/Organ (Average ± Sd), Testis” value ([3]; normal rat) was 0.058 ± 0.004 % ID/Organ. The “% ID/Organ (Average ± Sd), Urine” value ([3]; normal rat) was 26.93 ± 4.23 % ID/Organ, the “spleen accumulation” value ([3]; rat) was “did not show the spleen accumulation behavior” and the “distribution seen in gamma camera images” value [4] was “significant excretion from the hepatobiliary system and no apparent spleen accumulation; also recorded: fast blood clearance, fast excretion into bowel and urine, and no spleen accumulation”. The “distribution seen in gamma camera images” value ([4]; listed as 186Re-“BMBDA” alone) was “fast blood clearance, fast excretion into bowel and urine, and no spleen accumulation”.
